The source of these data is patent publication US7838485B2, “Biodegradable alkaline disinfectant cleaner with analyzable surfactant” (American Sterilizer Company, priority 2007, dated 2010).

Molecules are shown by their SMILES.

For this assay, the system named is S. aureus ATCC 6538. Nature of the assay: Quantitative modified AOAC Use Dilution Test, log reduction on stainless steel penicylinders. It is filed as cell-based. As to conditions: 5% Fetal bovine serum soil load, contact time 10 min., 10% of the product. From the text:
Tests were done using the aforementioned modified version of the AOAC Use Dilution Test, to quantify the number of viable bacteria remaining on the stainless steel penicylinders. […] Starting populations are listed in parentheses.

As for `[Na+].[OH-]` [13% NaOH, sodium hydroxide], the “Average Log Reduction” value by setting is: (40° C.) 2.69; (60° C.) 7.00; (RT) 1.76.
